Results taken from patent US12257237B2 (priority 2017, dated 2025).
Values joined by “and” are separate entries in the source; they are usually repeats but may differ in a detail not shown here. Equal entries are not always repeated.

System: TC-71 Ewing sarcoma
Assay: Antitumour activity in TC-71 Ewing sarcoma xenograft model
Assay type: in vivo, Athymic nude mice
Conditions: for optimal T/C: day 21; for mice still in CR at the end of the experiment: after second cycle
Procedure: Experiments were performed with female Athymic nude mice, 9-10 weeks old obtained from Harlan Laboratories (Udine, Italy). They were maintained under Specific Pathogen Free conditions with constant temperature and humidity, according to the institutional guidelines.
Tumour growth mice was monitored two/three times a week (depending on tumour growth rate, to avoid unnecessary stress to the animals) by Vernier caliper. Mice were sacrificed when tumour reached a mean weight of 2±0.5 gr. The antitumour activity will be expressed as T/C %, where T and C were the mean tumour weight of treated and control groups, respectively. Mice were monitored daily and weighted at least two times a week. Tolerability was evaluated on the basis of body weight loss (BWL) and clinical observation.
Statistical analysis was performed with GraphPad Prism version 6.01 software (GraphPad software, Inc., La Jolla, CA, USA). ANOVA test was performed to evaluate if there were statistically significant differences between treated and control groups.
5×10^6 TC-71 cells were inoculated subcutaneously in the right flank of mice. The growing tumour masses were measured with the aid of a Vernier caliper, and the tumour weights (1 mm^3=1 mg) were calculated by the formula: length×(width) 2/2. When tumour load achieved about 100 mg, mice were randomized into the experimental groups and treatment started.

[1] = EDO80: 80 mg/kg i.v. single dose, day 9 from inoculum
[2] = EDO80: 80 mg/kg i.v. single dose, day 11 from inoculum
[3] = EDO80: 80 mg/kg i.v. single dose, day 14 from inoculum
[4] = EDO80: 80 mg/kg i.v. single dose, day 16 from inoculum
[5] = EDO80: 80 mg/kg i.v. single dose, day 18 from inoculum
[6] = EDO80: 80 mg/kg i.v. single dose, day 21 from inoculum
[7] = EDO80: 80 mg/kg i.v. single dose, day 23 from inoculum
[8] = EDO80: 80 mg/kg i.v. single dose, day 25 from inoculum
[9] = EDO80: 80 mg/kg i.v. single dose, day 28 from inoculum
[10] = EDO80: 80 mg/kg i.v. single dose, day 30 from inoculum
[11] = EDO80: 80 mg/kg i.v. single dose, day 32 from inoculum
[12] = EDO80: 80 mg/kg i.v. single dose, day 35 from inoculum
[13] = EDO80: 80 mg/kg i.v. single dose, day 38 from inoculum
[14] = EDO80: 80 mg/kg i.v. single dose, day 42 from inoculum
[15] = EDO80: 80 mg/kg i.v. single dose, day 45 from inoculum
[16] = EDO80: 80 mg/kg i.v. single dose, day 49 from inoculum

Cn1c(CCCCCCC(=O)NO)nc2cc(N(CCCl)CCCl)ccc21 [EDO-S101, 7-(5-(bis(2-chloroethyl)amino)-1-methyl-1H-benzo[d]imidazol-2-yl)-N-hydroxyheptanamide]
optimal T/C (40 mg/kg i.v. q7dx3): 24%
tumour regression (40 mg/kg q7dx3): no tumour regression in tumour volume was observed
effect of a second cycle of treatments on tumour re-growth (60 mg/kg): further delayed tumour re-growth without being able to arrest it
complete regressions (CR) (60 mg/kg group): 3 out of 8
tumour regression (60 mg/kg group): sustained tumour regressions in all of the treated mice
mice still in CR at the end of the experiment (60 mg/kg group): two
optimal T/C (60 mg/kg i.v. q7dx3): 1%
effect of a second cycle of treatments on tumour re-growth (80 mg/kg): further delayed tumour re-growth without being able to arrest it
complete regressions (CR) (80 mg/kg group): 4 out of 8
tumour regression (80 mg/kg group): sustained tumour regressions in all of the treated mice
mice still in CR at the end of the experiment (80 mg/kg group): one
optimal T/C (80 mg/kg i.v. single dose): 0.5%
TC-71 tumour weight, mean (EDO40: 40 mg/kg i.v. q7dx3, day 9 from inoculum): 103.5 mg
TC-71 tumour weight, mean (EDO40: 40 mg/kg i.v. q7dx3, day 11 from inoculum): 180.4 mg
TC-71 tumour weight, mean (EDO40: 40 mg/kg i.v. q7dx3, day 14 from inoculum): 180.6 mg
TC-71 tumour weight, mean (EDO40: 40 mg/kg i.v. q7dx3, day 16 from inoculum): 236.4 mg
TC-71 tumour weight, mean (EDO40: 40 mg/kg i.v. q7dx3, day 18 from inoculum): 319.3 mg
TC-71 tumour weight, mean (EDO40: 40 mg/kg i.v. q7dx3, day 21 from inoculum): 348.4 mg
TC-71 tumour weight, mean (EDO40: 40 mg/kg i.v. q7dx3, day 23 from inoculum): 514.5 mg
TC-71 tumour weight, mean (EDO40: 40 mg/kg i.v. q7dx3, day 25 from inoculum): 548.0 mg
TC-71 tumour weight, mean (EDO40: 40 mg/kg i.v. q7dx3, day 28 from inoculum): 733.8 mg
TC-71 tumour weight, mean (EDO40: 40 mg/kg i.v. q7dx3, day 30 from inoculum): 1055.5 mg
TC-71 tumour weight, mean (EDO40: 40 mg/kg i.v. q7dx3, day 32 from inoculum): 1376.1 mg
TC-71 tumour weight, mean (EDO60: 60 mg/kg i.v. q7dx3, day 9 from inoculum): 106.1 mg
TC-71 tumour weight, mean (EDO60: 60 mg/kg i.v. q7dx3, day 11 from inoculum): 130.4 mg
TC-71 tumour weight, mean (EDO60: 60 mg/kg i.v. q7dx3, day 14 from inoculum): 76.1 mg
TC-71 tumour weight, mean (EDO60: 60 mg/kg i.v. q7dx3, day 16 from inoculum): 39.2 mg
TC-71 tumour weight, mean (EDO60: 60 mg/kg i.v. q7dx3, day 18 from inoculum): 24.2 mg
TC-71 tumour weight, mean (EDO60: 60 mg/kg i.v. q7dx3, day 21 from inoculum): 14.1 mg
TC-71 tumour weight, mean (EDO60: 60 mg/kg i.v. q7dx3, day 23 from inoculum): 19.1 mg
TC-71 tumour weight, mean (EDO60: 60 mg/kg i.v. q7dx3, day 25 from inoculum): 23.2 mg
TC-71 tumour weight, mean (EDO60: 60 mg/kg i.v. q7dx3, day 28 from inoculum): 22.9 mg
TC-71 tumour weight, mean (EDO60: 60 mg/kg i.v. q7dx3, day 30 from inoculum): 43.7 mg
TC-71 tumour weight, mean (EDO60: 60 mg/kg i.v. q7dx3, day 32 from inoculum): 119.4 mg
TC-71 tumour weight, mean (EDO60: 60 mg/kg i.v. q7dx3, day 35 from inoculum): 155.1 mg
TC-71 tumour weight, mean (EDO60: 60 mg/kg i.v. q7dx3, day 38 from inoculum): 205.8 mg
TC-71 tumour weight, mean (EDO60: 60 mg/kg i.v. q7dx3, day 42 from inoculum): 396.7 mg
TC-71 tumour weight, mean (EDO60: 60 mg/kg i.v. q7dx3, day 45 from inoculum): 601.3 mg
TC-71 tumour weight, mean (EDO60: 60 mg/kg i.v. q7dx3, day 49 from inoculum): 642.0 mg
TC-71 tumour weight, mean (EDO60: 60 mg/kg i.v. q7dx3, day 53 from inoculum): 906.2 mg
TC-71 tumour weight, mean (EDO60: 60 mg/kg i.v. q7dx3, day 56 from inoculum): 1549.1 mg
TC-71 tumour weight, individual mice [1]: 222.4 mg and 133.9 mg and 113.7 mg and 97.0 mg and 83.4 mg and 80.5 mg and 57.3 mg and 45.5 mg
TC-71 tumour weight, mean [1]: 104.2 mg
TC-71 tumour weight, individual mice [2]: 369.7 mg and 200.9 mg and 133.4 mg and 118.7 mg and 55.8 mg and 65.3 mg and 49.8 mg and 45.0 mg
TC-71 tumour weight, mean [2]: 129.8 mg
TC-71 tumour weight, individual mice [3]: 209.5 mg and 68.4 mg and 34.6 mg and 32.5 mg and 24.2 mg and 15.6 mg and 17.0 mg
TC-71 tumour weight, mean [3]: 51.7 mg
TC-71 tumour weight, individual mice [4]: 124.6 mg and 34.0 mg and 11.8 mg and 8.0 mg and 5.9 mg and 3.2 mg and 6.8 mg
TC-71 tumour weight, mean [4]: 25.6 mg
TC-71 tumour weight, individual mice [5]: 68.6 mg and 8.3 mg and 7.4 mg and 3.1 mg and 4.3 mg and 7.1 mg and 2.3 mg and 4.9 mg
TC-71 tumour weight, mean [5]: 13.2 mg
TC-71 tumour weight, individual mice [6]: 23.4 mg and 3.4 mg and 5.3 mg and 1.0 mg and 2.5 mg and 5.4 mg
TC-71 tumour weight, mean [6]: 7.3 mg
TC-71 tumour weight, individual mice [7]: 16.8 mg and 2.1 mg and 8.6 mg and 35.1 mg and 2.4 mg and 1.2 mg
TC-71 tumour weight, mean [7]: 11.0 mg
TC-71 tumour weight, individual mice [8]: 38.4 mg and 3.8 mg and 14.0 mg and 74.0 mg and 4.1 mg
TC-71 tumour weight, mean [8]: 26.9 mg
TC-71 tumour weight, individual mice [9]: 117.5 mg and 4.1 mg and 59.4 mg and 203.9 mg
TC-71 tumour weight, mean [9]: 65.7 mg
TC-71 tumour weight, individual mice [10]: 220.0 mg and 18.1 mg and 185.0 mg and 415.0 mg and 12.8 mg
TC-71 tumour weight, mean [10]: 126.3 mg
TC-71 tumour weight, individual mice [11]: 340.2 mg and 64.8 mg and 238.3 mg and 594.3 mg and 37.0 mg
TC-71 tumour weight, mean [11]: 199.8 mg
TC-71 tumour weight, individual mice [12]: 319.1 mg and 49.1 mg and 343.5 mg and 692.9 mg and 34.3 mg
TC-71 tumour weight, mean [12]: 225.9 mg
TC-71 tumour weight, individual mice [13]: 239.8 mg and 32.6 mg and 310.8 mg and 670.0 mg and 56.6 mg
TC-71 tumour weight, mean [13]: 204.0 mg
TC-71 tumour weight, individual mice [14]: 598.5 mg and 77.8 mg and 1030.8 mg and 1865.6 mg and 237.5 mg
TC-71 tumour weight, mean [14]: 601.9 mg
TC-71 tumour weight, individual mice [15]: 790.9 mg and 209.0 mg and 1741.1 mg and 2763.5 mg and 370.1 mg
TC-71 tumour weight, mean [15]: 944.7 mg
TC-71 tumour weight, individual mice [16]: 1094.7 mg and 481.3 mg and 3462.7 mg and 4619.8 mg
TC-71 tumour weight, mean [16]: 1657.1 mg
